Test results from US6894074B2, “Synergistic insecticidal mixtures” (Bayer Aktiengesellschaft, priority 1999, dated 2005).

Columns and labels:
Type in all cases: in vivo
[1] = system: white fly Bemisia tabaci; assay: Bemisia test: infested cotton plants dipped into preparation of active compound, kill in %; conditions: 4 ppm active compound
Text: The expected activity for a given combinatin of two active compounds can be calculated as follows (according to S. R. Colby, Weeds 15 (1967), 20-22):
If the actual activity exceeds the calculated value, then the activity of the combination is superadditive, i.e. a synergistic effect exists. In this case, the efficacy which was actually observed must be greater than the value for the expected efficacy (E) calculated from the abovementioned formula.
To produce a suitable preparation of active compound, 1 part by weight of active compound is mixed with the stated amounts of solvent and emulsifier, and the concentrate is diluted with water to the desired concentrations.
Cotton plants (Gossypium hirsutum) which are infested by eggs, larvae and puparia of the white fly Bemisia tabaci are dipped into a preparation of active compound of the desired concentration.
After the desired period of time, the kill in % is determined. 100% means that all animals have been killed; 0% means that none of the animals have been killed.

[2] = system: Aphis gossypii; assay: Field spray test against Aphis gossypii on courgettes, efficacy by the method of Abbott; conditions: 4 spray applications
Procedure: The spray liquor (1000 l of water/ha) comprising the active compound(s) was applied using a knapsack sprayer operated with compressed air. 4 spray applications were carried out at intervals of 9-13 days. The plot size was 12 m^2. The effect on the aphids was determined 7, 16 and 29 days after the last application (start of the infestation after the 2nd treatment) by counting the animals which were still alive/leaf (10 leaves/plot) and calculating the efficacy by the method of Abbott.

[3] = system: Bemisia tabaci; assay: Field spray test against Bemisia tabaci on cotton, efficacy by the method of Abbott; conditions: larvae on cotton
Procedure: The spray liquor (1000 l of water/ha) comprising the active compound(s) was applied using a knapsack sprayer operated by pressurized air. The plot size was 19 m^2. The effect was evaluated 7, 10 and 14 days after the application by determining the number of larvae still alive on the leaf undersurface (10 leaves/plot) and calculating the efficacy by the method of Abbott.

`O=[N+]([O-])/N=C1\NCCN1Cc1ccc(Cl)nc1` [Ex. (IIa)] was tested. Which “Kill in % after 10 d” value [1] did it give?
The value was 0%.

And the “Efficacy % Abbott” value ([2]; 0.015 % active compound, 7 days after the last treatment)?
The value was 100%.

What about the “Efficacy % Abbott” value ([2]; 0.015 % active compound, 16 days after the last treatment) of the same compound?
The value was 89%.

And the “Efficacy % Abbott” value ([2]; 0.015 % active compound, 29 days after the last treatment)?
Its value is 33%.

What does the source list for `Cc1cc(C)c(C2=C(OC(=O)CC(C)(C)C)C3(CCCC3)OC2=O)c(C)c1` [Ex. (Ia)]?
Kill in % after 10 d [1]: 0%; Efficacy % Abbott ([3]; 0.0096 kg of active compound/ha, 7 days after treatment): 49%; Efficacy % Abbott ([3]; 0.0096 kg of active compound/ha, 10 days after treatment): 87%; Efficacy % Abbott ([3]; 0.0096 kg of active compound/ha, 14 days after treatment): 78%; Efficacy % Abbott ([2]; 0.0144 % active compound, 7 days after the last treatment): 0%; Efficacy % Abbott ([2]; 0.0144 % active compound, 16 days after the last treatment): 0%; Efficacy % Abbott ([2]; 0.0144 % active compound, 29 days after the last treatment): 0%

How did the “Efficacy % Abbott” value ([3]; 0.096 kg of active compound/ha, 7 days after treatment) turn out when `N#C/N=C1\SCCN1Cc1ccc(Cl)nc1` [IIk] was run?
Its value is 86%.

What about the “Efficacy % Abbott” value ([3]; 0.096 kg of active compound/ha, 10 days after treatment) of the same compound?
Its value is 61%.

What about the “Efficacy % Abbott” value ([3]; 0.096 kg of active compound/ha, 14 days after treatment) of the same compound?
Its value is 68%.
